Assay results as given in US20060063759A1, “Tricyclic steroid hormone nuclear receptor modulators” (priority 2002, published 2006).

Key:
human MR = molecular target: T1, human MR (Homo sapiens, UniProt P08235); assay: Mineralocorticoid Receptor Binding Assay ([3H]-aldosterone); details: [3H]-aldosterone binding, human MR expressed in Sf9 cells; read-out: MR Ki
T1 construct: The full length human MR gene is cloned from a human kidney or human brain cDNA library; His tag from the pAcHLT vector (own knowledge); made in house; host or cells: Sf9 insect cells (baculovirus, pAcHLT transfer vector)
T1 sequence (P08235 1-984): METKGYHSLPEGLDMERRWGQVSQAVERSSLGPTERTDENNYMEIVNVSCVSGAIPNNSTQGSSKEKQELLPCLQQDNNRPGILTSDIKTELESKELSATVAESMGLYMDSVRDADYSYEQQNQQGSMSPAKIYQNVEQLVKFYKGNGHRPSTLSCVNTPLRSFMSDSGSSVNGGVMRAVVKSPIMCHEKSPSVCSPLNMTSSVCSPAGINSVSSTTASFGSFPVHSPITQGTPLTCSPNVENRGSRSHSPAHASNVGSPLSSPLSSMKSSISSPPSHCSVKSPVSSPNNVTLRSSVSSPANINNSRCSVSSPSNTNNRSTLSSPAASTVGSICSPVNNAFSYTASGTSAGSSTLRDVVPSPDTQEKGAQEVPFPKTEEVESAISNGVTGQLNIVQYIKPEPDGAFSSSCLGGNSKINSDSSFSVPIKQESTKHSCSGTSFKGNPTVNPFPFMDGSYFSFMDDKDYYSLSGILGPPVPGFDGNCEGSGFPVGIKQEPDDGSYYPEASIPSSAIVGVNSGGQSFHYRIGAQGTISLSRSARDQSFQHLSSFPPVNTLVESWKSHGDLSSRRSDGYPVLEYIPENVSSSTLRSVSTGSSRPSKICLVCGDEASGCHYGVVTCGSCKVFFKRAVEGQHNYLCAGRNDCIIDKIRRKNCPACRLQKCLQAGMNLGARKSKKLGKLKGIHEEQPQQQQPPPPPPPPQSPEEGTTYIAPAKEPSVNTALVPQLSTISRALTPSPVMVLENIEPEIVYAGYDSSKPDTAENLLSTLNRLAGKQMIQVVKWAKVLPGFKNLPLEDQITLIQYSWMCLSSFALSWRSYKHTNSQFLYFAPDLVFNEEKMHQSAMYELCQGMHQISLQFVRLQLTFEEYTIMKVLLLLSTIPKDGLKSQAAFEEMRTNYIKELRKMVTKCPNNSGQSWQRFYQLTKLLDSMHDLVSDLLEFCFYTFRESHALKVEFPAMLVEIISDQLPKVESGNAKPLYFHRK
Method in brief: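 Lysate supernatant of Sf9 cells expressing full-length human MR (20-25 μg protein) was incubated with 0.5 nM [3H]-aldosterone and test compound in molybdate/Tris/phosphate/glycerol buffer, pH 7.5, ~16 h at 4 °C. Bound ligand was filtered and counted by scintillation; IC50 is the concentration halving [3H]-aldosterone binding.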

glucocorticoid receptor = molecular target: T2, glucocorticoid receptor (Homo sapiens, UniProt P04150); assay: Glucocorticoid Receptor Binding Assay ([3H]-dexamethasone, A549 cell extract); details: [3H]-dexamethasone binding, read-out: GR Ki
T2 construct: containing 50-200 ug of A549 cell extract and 1.86 nM [^3H]-dexamethasone; host or cells: A549 human lung epithelial cells (sonicated cell extract)
T2 sequence (P04150 1-777): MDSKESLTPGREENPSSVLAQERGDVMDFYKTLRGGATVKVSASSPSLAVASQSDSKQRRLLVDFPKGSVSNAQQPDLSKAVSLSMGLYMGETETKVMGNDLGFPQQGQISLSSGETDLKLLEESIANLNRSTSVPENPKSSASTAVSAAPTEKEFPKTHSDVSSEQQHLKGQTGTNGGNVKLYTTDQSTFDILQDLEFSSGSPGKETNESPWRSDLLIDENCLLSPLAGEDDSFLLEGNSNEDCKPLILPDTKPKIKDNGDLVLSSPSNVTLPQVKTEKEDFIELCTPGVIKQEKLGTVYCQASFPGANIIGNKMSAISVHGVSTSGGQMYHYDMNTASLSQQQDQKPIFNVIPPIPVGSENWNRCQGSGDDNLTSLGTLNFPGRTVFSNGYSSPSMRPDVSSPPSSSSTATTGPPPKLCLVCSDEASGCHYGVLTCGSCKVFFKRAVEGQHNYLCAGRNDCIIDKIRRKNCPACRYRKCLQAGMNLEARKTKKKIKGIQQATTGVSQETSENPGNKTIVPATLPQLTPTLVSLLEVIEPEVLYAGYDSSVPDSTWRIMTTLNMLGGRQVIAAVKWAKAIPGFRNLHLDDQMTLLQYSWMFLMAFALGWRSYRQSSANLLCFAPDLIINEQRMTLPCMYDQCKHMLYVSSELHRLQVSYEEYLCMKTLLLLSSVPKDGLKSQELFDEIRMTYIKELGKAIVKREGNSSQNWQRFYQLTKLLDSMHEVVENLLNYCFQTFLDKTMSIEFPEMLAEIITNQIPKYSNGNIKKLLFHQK
Method in brief: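 A549 cell extract (50–200 ug) incubated with 1.86 nM [3H]-dexamethasone and test compound for 16 h at 4 °C in Tris-HCl pH 7.2 buffer with glycerol and molybdate. Unbound radioligand removed by dextran-coated charcoal, then supernatant bound counts measured by scintillation.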

Row | Compound | Ki (human MR) [nM] | Ki (glucocorticoid receptor) [nM]
1 | N#Cc1cccc2c1CCc1ccccc1/C2=C/c1cccc(O)c1 [Example 363] | < 500 | < 500
2 | N#Cc1cccc2c1CCc1ccccc1/C2=C\c1cccc(O)c1 [Example 364] | < 500 | < 500
3 | CS(=O)(=O)Nc1cccc(/C=C2\c3ccccc3CCc3cccc(Cl)c32)c1 [Example 365] | < 500 | < 500
4 | CS(=O)(=O)Nc1cccc(/C=C2/c3ccccc3CCc3cccc(Cl)c32)c1 [Example 366] | < 500 | < 500
5 | Oc1cccc(/C=C2/c3ccccc3CCc3cccc(Cl)c32)c1 [Example 367] | < 500 | < 10000
6 | COc1cccc(/C=C2\c3ccccc3CCc3c(O)cccc32)c1 [Example 368] | < 500 | < 10000
7 | COc1cccc(/C=C2/c3ccccc3CCc3c(O)cccc32)c1 [Example 369] | < 500 | < 10000
8 | Oc1cccc(/C=C2\c3ccccc3CCc3cccc(Cl)c32)c1 [Example 370] | < 500 | < 1000
9 | Oc1cccc(/C=C2/c3ccccc3CCc3c(Br)cccc32)c1 [Example 371] | < 500 | < 500
10 | Oc1cccc(/C=C2\c3ccccc3CCc3c(Br)cccc32)c1 [Example 372] | < 500 | < 1000
11 | Oc1cccc(C=C2c3ccccc3CCc3c2cccc3C(Br)Br)c1 [Example 373] | < 500 | < 10000
12 | CS(=O)(=O)Nc1cccc(/C=C2/c3ccccc3CCc3cc(C(F)F)ccc32)c1 [Example 374] | < 500 | < 500
13 | CS(=O)(=O)Nc1cccc(/C=C2\c3ccccc3CCc3cc(C(F)F)ccc32)c1 [Example 375] | < 500 | < 500
14 | Oc1cccc(/C=C2\c3ccccc3CCc3c(O)cccc32)c1 [Example 376] | < 500 | < 500
15 | Oc1cccc(/C=C2/c3ccccc3CCc3c(O)cccc32)c1 [Example 377] | < 500 | < 10000
16 | O=Cc1cccc2c1CCc1ccccc1/C2=C\c1cccc(O)c1 [Example 378] | < 500 | < 1000
17 | O=Cc1cccc2c1CCc1ccccc1/C2=C/c1cccc(O)c1 [Example 379] | < 500 | < 10000
18 | Oc1cccc(/C=C2/c3ccccc3CCc3c2cccc3C(F)F)c1 [Example 380] | < 500 | < 1000
19 | CS(=O)(=O)Nc1cccc(/C=C2/c3ccccc3CCc3c2cccc3C(F)F)c1 [Example 381] | < 500 | < 500
20 | CS(=O)(=O)Nc1cccc(/C=C2\c3ccccc3CCc3c2cccc3C(F)F)c1 [Example 382] | < 500 | < 500
21 | CS(=O)(=O)Nc1cccc(C[C@H]2c3ccccc3CCc3cc(F)ccc32)c1 [Example 383] | < 500 | < 500
22 | Nc1cccc(C=C2c3ccc(F)cc3CCc3cc(F)ccc32)c1 [Example 384] | < 500 | < 500
23 | N#CNc1cccc(C=C2c3ccc(F)cc3CCc3cc(F)ccc32)c1 [Example 385] | < 500 | < 1000
24 | COC(=O)c1ccc2c(c1)CCc1ccccc1/C2=C\c1cccc(NS(C)(=O)=O)c1 [Example 386] | < 500 | < 500

Row | Compound | Ki (human MR) [nM] | Ki (glucocorticoid receptor) [nM]
25 | COC(=O)c1ccc2c(c1)CCc1ccccc1/C2=C/c1cccc(NS(C)(=O)=O)c1 [Example 387] | < 500 | < 500
26 | CSc1ccc2c(c1)CCc1ccccc1/C2=C\c1cccc(NS(C)(=O)=O)c1 [Example 388] | < 500 | < 500
27 | CSc1ccc2c(c1)CCc1ccccc1/C2=C/c1cccc(NS(C)(=O)=O)c1 [Example 389] | < 500 | < 500
28 | CS(=O)(=O)Nc1cccc(/C=C2/c3ccccc3CCc3cc(C(F)(F)F)ccc32)c1 [Example 390] | < 500 | < 500
29 | CS(=O)(=O)Nc1cccc(/C=C2\c3ccccc3CCc3cc(C(F)(F)F)ccc32)c1 [Example 391] | < 500 | < 500
30 | CS(=O)(=O)Nc1cccc(/C=C2\c3ccccc3CCc3cc(S(C)(=O)=O)ccc32)c1 [Example 392] | < 500 | < 500
31 | CS(=O)(=O)Nc1cccc(/C=C2/c3ccccc3CCc3cc(S(C)(=O)=O)ccc32)c1 [Example 393] | < 500 | < 500
32 | Nc1ccc(C=C2c3ccccc3CCc3cc(Cl)ccc32)cc1 [Example 394] | < 500 | < 500
33 | CS(=O)(=O)Nc1ccc(C=C2c3ccccc3CCc3cc(Cl)ccc32)cc1 [Example 395] | < 500 | < 10000
34 | COC(=O)Nc1cccc(C=C2c3ccccc3CCc3cc(Cl)ccc32)c1 [Example 396] | < 500 | < 500
35 | CN(C)C(=O)Nc1cccc(C=C2c3ccccc3CCc3cc(Cl)ccc32)c1 [Example 397] | < 500 | < 10000
36 | CN(c1cccc(C=C2c3ccccc3CCc3cc(Cl)ccc32)c1)S(C)(=O)=O [Example 398] | < 500 | < 500
37 | O=S(=O)(Nc1cccc(C=C2c3ccccc3CCc3cc(Cl)ccc32)c1)c1ccccc1 [Example 399] | < 500 | < 10000
38 | O=C(Nc1cccc(C=C2c3ccccc3CCc3cc(Cl)ccc32)c1)C(F)(F)F [Example 400] | < 500 | < 500
39 | CS(=O)(=O)Nc1cccc(C=C2c3ccccc3CCc3cc(N)ccc32)c1 [Example 401] | < 500 | < 500
40 | CN(C)c1ccc2c(c1)CCc1ccccc1C2=Cc1cccc(NS(C)(=O)=O)c1 [Example 402] | < 500 | < 10000
41 | CS(=O)(=O)Nc1cccc(C=C2c3ccccc3CCc3c(N)cccc32)c1 [Example 403] | < 500 | < 500
42 | CN(C)c1cccc2c1CCc1ccccc1C2=Cc1cccc(NS(C)(=O)=O)c1 [Example 404] | < 500 | < 500
43 | CC(=O)Nc1ccc2c(c1)CCc1ccccc1C2=Cc1cccc(NS(C)(=O)=O)c1 [Example 405] | < 500 | < 500
44 | CC(=O)Nc1cccc2c1CCc1ccccc1C2=Cc1cccc(NS(C)(=O)=O)c1 [Example 406] | < 500 | < 500
45 | CS(=O)(=O)Nc1cccc(/C=C2\c3ccccc3CCc3cc(N)ccc32)c1 [Example 407] | < 500 | < 500
46 | CS(=O)(=O)Nc1cccc(/C=C2/c3ccccc3CCc3cc(N)ccc32)c1 [Example 408] | < 500 | < 500
47 | CS(=O)(=O)Nc1cccc(/C=C2\c3ccccc3CCc3c(N)cccc32)c1 [Example 409] | < 500 | < 500
48 | CS(=O)(=O)Nc1cccc(/C=C2/c3ccccc3CCc3c(N)cccc32)c1 [Example 410] | < 500 | < 500
